From patent publication US20190345138A1, “HETEROCYCLIC AMIDES AS KINASE INHIBITORS” (GlaxoSmithKline Intellectual Property Development Limited, priority 2016, published 2019)
Several values for one entry are separate records, joined by “and”; a condition that tells them apart may be missing. Equal entries are not always repeated.

Experiments:
[1] = system: human monocytic leukemia U937 cells; experiment: necroptosis assay in U937 cells; format: cell-based; conditions: Homo sapiens, U-937, U937 cells; viability by cellular ATP (Cell Titer-Glo); read-out: pIC50, inhibited necrosis in U937 cells (converted)
Method: The efficacy of RIP1 inhibitors can be tested […] in vitro using a human monocytic leukemia U937 or mouse L929 fibrosarcoma cells in a necroptosis assay. As determined using the method described in S. He et al., Cell, 137(6):1100-1111 (2009) and International Patent Appln. No. PCT/IB2014/059004, now, International Patent Appln. Pub.
Viability was measured by quantitating cellular levels of ATP using the Cell Titer-Glo kit. All data are means±standard deviation of the mean.

RIP1 kinase = target: T1, RIP1 kinase (Homo sapiens, UniProt Q13546); experiment: fluorescent polarization based binding assay; conditions: mean of a minimum of 2 experiments
T1 sequence (Q13546 1-375 limits assumed): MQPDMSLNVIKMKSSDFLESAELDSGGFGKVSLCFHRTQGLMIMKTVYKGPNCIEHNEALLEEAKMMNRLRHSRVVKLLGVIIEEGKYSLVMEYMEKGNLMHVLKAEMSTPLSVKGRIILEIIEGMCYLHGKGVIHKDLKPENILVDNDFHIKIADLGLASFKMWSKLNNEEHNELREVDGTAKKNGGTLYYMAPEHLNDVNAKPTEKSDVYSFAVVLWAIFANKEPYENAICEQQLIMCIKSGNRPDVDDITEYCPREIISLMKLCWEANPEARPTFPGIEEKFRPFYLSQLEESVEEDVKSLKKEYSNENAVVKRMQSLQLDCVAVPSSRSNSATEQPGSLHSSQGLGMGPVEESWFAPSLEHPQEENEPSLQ
From the text: A fluorescent polarization based binding assay was used to assess the activity of the compounds of this invention, the details of which are disclosed in International Patent Appln. No. PCT/IB2014/059004, now, International Patent Appln. Pub.

SMILES	IC50 [1]	IC50 (RIP1 kinase)
COc1cc(N2CCC(C(=O)N3N=CC[C@H]3c3ccccc3)CC2)ncn1 [Example 12, (S)-(1-(6-methoxypyrimidin-4-yl)piperidin-4-yl)(5-phenyl-4,5-dihydro-1H-pyrazol-1-yl)methanone]	1 to 100 nM	1 to 31.6 nM and 1 to 10 nM
COc1cnc(N2CCC(C(=O)N3N=CC[C@H]3c3ccccc3)CC2)nc1 [Example 13, (S)-(1-(5-methoxypyrimidin-2-yl)piperidin-4-yl)(5-phenyl-4,5-dihydro-1H-pyrazol-1-yl)methanone]	1 to 100 nM	1 to 31.6 nM and 1 to 10 nM
CNc1nccc(N2CCC(C(=O)N3N=CC[C@H]3c3ccccc3)CC2)n1 [Example 15, (S)-(1-(2-(methylamino)pyrimidin-4-yl)piperidin-4-yl)(5-phenyl-4,5-dihydro-1H-pyrazol-1-yl)methanone]	1 to 100 nM	1 to 31.6 nM and 1 to 10 nM
CNc1ccnc(N2CCC(C(=O)N3N=CC[C@H]3c3ccccc3)CC2)n1 [Example 16, (S)-(1-(4-(methylamino)pyrimidin-2-yl)piperidin-4-yl)(5-phenyl-4,5-dihydro-1H-pyrazol-1-yl)methanone]	1 to 100 nM	1 to 31.6 nM
COc1nccc(N2CCC(C(=O)N3N=CC[C@H]3c3ccccc3)CC2)n1 [Example 17, (S)-(1-(2-methoxypyrimidin-4-yl)piperidin-4-yl)(5-phenyl-4,5-dihydro-1H-pyrazol-1-yl)methanone]	1 to 100 nM	1 to 31.6 nM and 1 to 10 nM
N#Cc1nccc(N2CCC(C(=O)N3N=CC[C@H]3c3ccccc3)CC2)n1 [Example 18, (S)-4-(4-(5-phenyl-4,5-dihydro-1H-pyrazole-1-carbonyl)piperidin-1-yl)pyrimidine-2-carbonitrile]	1 to 100 nM	1 to 31.6 nM and 1 to 10 nM
O=C(C1CCN(c2nccc(=O)[nH]2)CC1)N1N=CC[C@H]1c1ccccc1 [Example 19, (S)-2-(4-(5-phenyl-4,5-dihydro-1H-pyrazole-1-carbonyl)piperidin-1-yl)pyrimidin-4(3H)-one]	1 to 100 nM	1 to 31.6 nM
O=C(C1CCN(c2ccn3nccc3n2)CC1)N1N=CC[C@H]1c1ccccc1 [Example 21, (S)-(5-phenyl-4,5-dihydro-1H-pyrazol-1-yl)(1-(pyrazolo[1,5-a]pyrimidin-5-yl)piperidin-4-yl)methanone]	1 to 100 nM	1 to 31.6 nM and 1 to 10 nM
O=C(C1CCN(c2ccc3nccn3n2)CC1)N1N=CC[C@H]1c1ccccc1 [Example 22, (S)-(1-(imidazo[1,2-b]pyridazin-6-yl)piperidin-4-yl)(5-phenyl-4,5-dihydro-1H-pyrazol-1-yl)methanone]	1 to 100 nM	1 to 31.6 nM and 1 to 10 nM
O=C1Cc2cnc(N3CCC(C(=O)N4N=CC[C@H]4c4ccccc4)CC3)nc2N1 [Example 24, (S)-2-(4-(5-phenyl-4,5-dihydro-1H-pyrazole-1-carbonyl)piperidin-1-yl)-5H-pyrrolo[2,3-d]pyrimidin-6(7H)-one]	1 to 100 nM	1 to 31.6 nM
O=C(C1CCN(c2ccc(C(F)(F)F)nn2)CC1)N1N=CC[C@H]1c1ccccc1 [Example 26, (S)-(5-phenyl-4,5-dihydro-1H-pyrazol-1-yl)(1-(6-(trifluoromethyl)pyridazin-3-yl)piperidin-4-yl)methanone]	1 to 100 nM	1 to 31.6 nM
NC(=O)c1cncc(N2CCC(C(=O)N3N=CC[C@H]3c3ccccc3)CC2)n1 [Example 31, (S)-6-(4-(5-phenyl-4,5-dihydro-1H-pyrazole-1-carbonyl)piperidin-1-yl)pyrazine-2-carboxamide]	1 to 100 nM	1 to 31.6 nM
Cc1nc(N)cc(N2CCC(C(=O)N3N=CC[C@H]3c3ccccc3)CC2)n1 [Example 33, (S)-(1-(6-amino-2-methylpyrimidin-4-yl)piperidin-4-yl)(5-phenyl-4,5-dihydro-1H-pyrazol-1-yl)methanone]	1 to 100 nM	1 to 31.6 nM
COc1cc(N2CCC(C(=O)N3N=CC[C@H]3c3ccccc3)CC2)nc(N)n1 [Example 34, (S)-(1-(2-amino-6-methoxypyrimidin-4-yl)piperidin-4-yl)(5-phenyl-4,5-dihydro-1H-pyrazol-1-yl)methanone]	1 to 100 nM	1 to 31.6 nM
COc1nc(N)cc(N2CCC(C(=O)N3N=CC[C@H]3c3ccccc3)CC2)n1 [Example 35, (S)-(1-(6-amino-2-methoxypyrimidin-4-yl)piperidin-4-yl)(5-phenyl-4,5-dihydro-1H-pyrazol-1-yl)methanone]	1 to 100 nM	1 to 31.6 nM
O=C(C1CCN(c2cncc(-c3ccccc3)n2)CC1)N1N=CC[C@H]1c1ccccc1 [Example 38, (S)-(5-phenyl-4,5-dihydro-1H-pyrazol-1-yl)(1-(6-phenylpyrazin-2-yl)piperidin-4-yl)methanone]	1 to 100 nM	1 to 31.6 nM

SMILES	IC50 [1]	IC50 (RIP1 kinase)
O=C(C1CCN(c2cnc3ccccc3n2)CC1)N1N=CC[C@H]1c1ccccc1 [Example 39, (S)-(5-phenyl-4,5-dihydro-1H-pyrazol-1-yl)(1-(quinoxalin-2-yl)piperidin-4-yl)methanone]	1 to 100 nM	1 to 31.6 nM and 1 to 10 nM
N#Cc1cnc(N2CCC(C(=O)N3N=CC[C@H]3c3ccccc3)CC2)cn1 [Example 40, (S)-5-(4-(5-phenyl-4,5-dihydro-1H-pyrazole-1-carbonyl)piperidin-1-yl)pyrazine-2-carbonitrile]	1 to 100 nM	1 to 31.6 nM and 1 to 10 nM
Nc1cncc(N2CCC(C(=O)N3N=CC[C@H]3c3ccccc3)CC2)n1 [Example 41, (S)-(1-(6-aminopyrazin-2-yl)piperidin-4-yl)(5-phenyl-4,5-dihydro-1H-pyrazol-1-yl)methanone]	1 to 100 nM	1 to 31.6 nM
N#Cc1ccc(N2CCC(C(=O)N3N=CC[C@H]3c3ccccc3)CC2)nn1 [Example 42, (S)-6-(4-(5-phenyl-4,5-dihydro-1H-pyrazole-1-carbonyl)piperidin-1-yl)pyridazine-3-carbonitrile]	1 to 100 nM	1 to 31.6 nM
N#Cc1nccnc1N1CCC(C(=O)N2N=CC[C@H]2c2ccccc2)CC1 [Example 44, (S)-3-(4-(5-phenyl-4,5-dihydro-1H-pyrazole-1-carbonyl)piperidin-1-yl)pyrazine-2-carbonitrile]	1 to 100 nM	1 to 31.6 nM and 1 to 10 nM
CSc1nccc(N2CCC(C(=O)N3N=CC[C@H]3c3ccccc3)CC2)n1 [Example 45, (S)-(1-(2-(methylthio)pyrimidin-4-yl)piperidin-4-yl)(5-phenyl-4,5-dihydro-1H-pyrazol-1-yl)methanone]	1 to 100 nM	1 to 31.6 nM and 1 to 10 nM
O=C(C1CCN(c2ccnc(C(F)(F)F)n2)CC1)N1N=CC[C@H]1c1ccccc1 [Example 46, (S)-(5-phenyl-4,5-dihydro-1H-pyrazol-1-yl)(1-(2-(trifluoromethyl)pyrimidin-4-yl)piperidin-4-yl)methanone]	1 to 100 nM	1 to 31.6 nM and 1 to 10 nM
N#Cc1cncc(N2CCC(C(=O)N3N=CC[C@H]3c3ccccc3)CC2)n1 [Example 47, (S)-6-(4-(5-phenyl-4,5-dihydro-1H-pyrazole-1-carbonyl)piperidin-1-yl)pyrazine-2-carbonitrile]	1 to 100 nM	1 to 31.6 nM
COc1cncc(N2CCC(C(=O)N3N=CC[C@H]3c3ccccc3)CC2)n1 [Example 48, (S)-(1-(6-methoxypyrazin-2-yl)piperidin-4-yl)(5-phenyl-4,5-dihydro-1H-pyrazol-1-yl)methanone]	1 to 100 nM	1 to 31.6 nM
COc1ccc(N2CCC(C(=O)N3N=CC[C@H]3c3ccccc3)CC2)nn1 [Example 49, (S)-(1-(6-methoxypyridazin-3-yl)piperidin-4-yl)(5-phenyl-4,5-dihydro-1H-pyrazol-1-yl)methanone]	1 to 100 nM	1 to 31.6 nM
N#Cc1cncnc1N1CCC(C(=O)N2N=CC[C@H]2c2ccccc2)CC1 [Example 50, (S)-4-(4-(5-phenyl-4,5-dihydro-1H-pyrazole-1-carbonyl)piperidin-1-yl)pyrimidine-5-carbonitrile]	1 to 100 nM	1 to 31.6 nM and 1 to 10 nM
O=C(C1CCN(c2cc(C(F)(F)F)ncn2)CC1)N1N=CC[C@H]1c1ccccc1 [Example 51, (S)-(5-phenyl-4,5-dihydro-1H-pyrazol-1-yl)(1-(6-(trifluoromethyl)pyrimidin-4-yl)piperidin-4-yl)methanone]	1 to 100 nM	1 to 31.6 nM
N#Cc1csc(N2CCC(C(=O)N3N=CC[C@H]3c3ccccc3)CC2)n1 [Example 53, (S)-2-(4-(5-phenyl-4,5-dihydro-1H-pyrazole-1-carbonyl)piperidin-1-yl)thiazole-4-carbonitrile]	1 to 100 nM	1 to 31.6 nM and 1 to 10 nM
CNC(=O)c1csc(N2CCC(C(=O)N3N=CC[C@H]3c3ccccc3)CC2)n1 [Example 54, (S)-N-methyl-2-(4-(5-phenyl-4,5-dihydro-1H-pyrazole-1-carbonyl)piperidin-1-yl)thiazole-4-carboxamide]	1 to 100 nM	1 to 31.6 nM
NC(=O)c1csc(N2CCC(C(=O)N3N=CC[C@H]3c3ccccc3)CC2)n1 [Example 56, (S)-2-(4-(5-phenyl-4,5-dihydro-1H-pyrazole-1-carbonyl)piperidin-1-yl)thiazole-4-carboxamide]	1 to 100 nM	1 to 31.6 nM
